Results reported in US9732119B2, “Immunomodulators” (BRISTOL-MYERS SQUIBB COMPANY, priority 2014, dated 2017).
Positions of bridges follow the written chain, without caps; N, C: chain ends. Non-standard residues stand in square brackets, D forms with d. Residues, ends and D or L forms follow the SMILES beside them. Trp(1-CH2COOH) = N[C@@H](Cc1cn(CC(=O)O)c2ccccc12)C(=O)O; Phe(4-F) = N[C@@H](Cc1ccc(F)cc1)C(=O)O; Hyp = O=C(O)[C@@H]1C[C@@H](O)CN1; NMeNle = CCCC[C@H](NC)C(=O)O; dOrn = NCCC[C@@H](N)C(=O)O; Pip = O=C(O)[C@@H]1CCCCN1; NMeA = CN[C@@H](C)C(=O)O; Dab = NCC[C@H](N)C(=O)O; Dap = NC[C@H](N)C(=O)O

target: T1, PD-1-Ig binding to PD-L1-TVMV-His (PD-L1-His) (Homo sapiens, UniProt Q9NZQ7); assay: PD-1/PD-L1 Homogenous Time-Resolved Fluorescence (HTRF) binding assay; conditions: PD-1-Ig (20 nM) / PD-L1-His (10 nM); numeric values
T1 construct: hPDL1(19-239)-TVMV-His; made in house; host or cells: HEK293T cells
Method in brief: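 In dPBS with 0.1% BSA and 0.05% Tween-20, inhibitors were preincubated 15 min with 10 nM PD-L1-His before 20 nM PD-1-Ig was added for another 15 min. Binding read by time-resolved FRET between Eu-cryptate anti-Ig (1 nM) and APC anti-His (20 nM).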

T1 sequence (Q9NZQ7 with tags, fused parts or gaps): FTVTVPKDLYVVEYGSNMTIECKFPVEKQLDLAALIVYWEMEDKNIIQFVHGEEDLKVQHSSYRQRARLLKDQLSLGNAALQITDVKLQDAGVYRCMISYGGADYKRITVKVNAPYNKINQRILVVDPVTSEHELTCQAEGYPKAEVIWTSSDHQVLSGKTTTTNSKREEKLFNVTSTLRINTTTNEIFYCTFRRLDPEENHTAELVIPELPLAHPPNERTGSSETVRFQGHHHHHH

Going from `CCCC[C@H]1C(=O)N(C)[C@@H](CCCC)C(=O)N[C@@H](CC(C)C)C(=O)N[C@H](C(=O)NCC(N)=O)CCNCC(=O)N[C@@H](Cc2ccc(O)cc2)C(=O)N(C)[C@@H](C)C(=O)N[C@@H](CC(N)=O)C(=O)N2CCC[C@H]2C(=O)N[C@@H](Cc2cnc[nH]2)C(=O)N[C@@H](CC(C)C)C(=O)N2C[C@H](O)C[C@H]2C(=O)N[C@@H](Cc2c[nH]c3ccccc23)C(=O)NCC(=O)N[C@@H](Cc2c[nH]c3ccccc23)C(=O)N1C` [Example 10027] to `CCCC[C@H]1C(=O)N(C)[C@@H](CCCC)C(=O)N[C@@H](CC(C)C)C(=O)NCCC[C@@H](N)C(=O)N[C@@H](Cc2ccc(F)cc2)C(=O)N2CCCC[C@H]2C(=O)N[C@@H](CC(N)=O)C(=O)N2CCC[C@H]2C(=O)N[C@@H](CN)C(=O)N[C@@H](CCC(=O)O)C(=O)N2C[C@H](O)C[C@H]2C(=O)N[C@@H](Cc2c[nH]c3ccccc23)C(=O)N[C@@H](CCN)C(=O)N[C@@H](Cc2cn(CC(=O)O)c3ccccc23)C(=O)N1C` [Example 10570] (H-[dOrn][Phe(4-F)][Pip]NP[Dap]E[Hyp]W[Dab][Trp(1-CH2COOH)][NMeNle][NMeNle]L; lactam 1-C), the IC50 rises from 6.95 nM to 12 nM (1.7-fold).

same assay, conditions: PD-1-Ig (20 nM) / PD-L1-His (10 nM); range classes

Compared with `CCCC[C@H]1C(=O)N(C)[C@@H](CCCC)C(=O)N[C@@H](CC(C)C)C(=O)N[C@H](C(N)=O)CNCC(=O)N[C@@H](Cc2ccc(F)cc2)C(=O)N2CCCC[C@H]2C(=O)N[C@@H](CC(N)=O)C(=O)N2CCC[C@H]2C(=O)N[C@@H](CCC(N)=O)C(=O)N[C@@H](CCC(N)=O)C(=O)N2C[C@H](O)C[C@H]2C(=O)N[C@@H](Cc2c[nH]c3ccccc23)C(=O)N[C@@H](CC(N)=O)C(=O)N[C@@H](Cc2cn(CC(=O)O)c3ccccc23)C(=O)N1C` [Example 9033], `CCCC[C@H]1C(=O)N(C)[C@@H](CCCC)C(=O)N[C@@H](CC(C)C)C(=O)N[C@H](C(N)=O)COCC(=O)N[C@@H](Cc2ccc(F)cc2)C(=O)N2CCCC[C@H]2C(=O)N[C@@H](CC(N)=O)C(=O)N2CCC[C@H]2C(=O)N[C@@H](CN)C(=O)N[C@@H](CC(C)C)C(=O)N2C[C@H](O)C[C@H]2C(=O)N[C@@H](Cc2c[nH]c3ccccc23)C(=O)N[C@@H](CCN)C(=O)N[C@@H](Cc2cn(CC(=O)O)c3ccccc23)C(=O)N1C` [Example 10529] is higher in IC50: 1 to 9.9 nM for the first, 10 to 99 nM for the second.

First: CCCC[C@H]1C(=O)N(C)[C@@H](CCCC)C(=O)N[C@@H](CC(C)C)C(=O)N[C@H](C(=O)NCC(N)=O)CNCC(=O)N[C@@H](Cc2ccc(O)cc2)C(=O)N(C)[C@@H](C)C(=O)N[C@@H](CC(N)=O)C(=O)N2CCC[C@H]2C(=O)N[C@@H](Cc2cnc[nH]2)C(=O)N[C@@H](CC(C)C)C(=O)N2CCC[C@H]2C(=O)N[C@@H](Cc2c[nH]c3ccccc23)C(=O)N[C@@H](CO)C(=O)N[C@@H](Cc2cn(CC(=O)O)c3ccccc23)C(=O)N1C [Example 10006]
Second: CCCC[C@H]1C(=O)N(C)[C@@H](CCCC)C(=O)N[C@@H](C)C(=O)N[C@H](C(=O)NCC(N)=O)CNCC(=O)N[C@@H](Cc2ccc(O)cc2)C(=O)N(C)[C@@H](C)C(=O)N[C@@H](CC(=O)O)C(=O)N2CCC[C@H]2C(=O)N[C@@H](Cc2cnc[nH]2)C(=O)N[C@@H](CCC(N)=O)C(=O)N2C[C@H](O)C[C@H]2C(=O)N[C@@H](Cc2c[nH]c3ccccc23)C(=O)N[C@@H](CO)C(=O)N[C@@H](Cc2cn(CC(=O)O)c3ccccc23)C(=O)N1C [Example 10014]
The IC50 of the first is higher: 10 to 99 nM for the first, 1 to 9.9 nM for the second. The second is the more potent here.

For `CCCC[C@H]1C(=O)N(C)[C@@H](CCCC)C(=O)N[C@@H](CC(C)C)C(=O)NCC(=O)NCC(=O)N[C@@H](Cc2ccc(O)cc2)C(=O)N(C)[C@@H](C)C(=O)N[C@@H](CC(N)=O)C(=O)N2CCC[C@H]2C(=O)N[C@@H](CN)C(=O)N[C@@H](CC(C)C)C(=O)N2C[C@H](O)C[C@H]2C(=O)N[C@@H](Cc2c[nH]c3ccccc23)C(=O)N[C@@H](CCN)C(=O)N[C@@H](Cc2cn(CC(=O)O)c3ccccc23)C(=O)N1C` [Example 5002] (cyclo([Dab][Trp(1-CH2COOH)][NMeNle][NMeNle]LGGY[NMeA]NP[Dap]L[Hyp]W)), the IC50 was 1 to 9.9 nM.
